pEC50: −log10 of the molar value.
Experiment: Inhibition of ROCK1 in human GTM3 cells by impedance assay

Row | SMILES | pEC50
1 | COc1ccccc1Cc1ccc2sc(-c3ccnc(N)n3)c(C)c2c1 [4-(5-(2-methoxybenzyl)-3-methylbenzo[b]thiophen-2-yl)pyrimidin-2-amine] | < 5.00
2 | Cc1c(-c2ccnc(N)n2)sc2ccc(CN)cc12 [4-(5-(aminomethyl)-3-methylbenzo[b]thiophen-2-yl)pyrimidin-2-amine] | < 5.00
3 | Cc1c(-c2ccnc(N)n2)sc2ccc(Cc3cccc(C(F)(F)F)c3)cc12 [4-(3-methyl-5-(3-(trifluoromethyl)benzyl)benzo[b]thiophen-2-yl)pyrimidin-2-amine] | < 5.00
4 | Cc1c(-c2ccnc(N)n2)sc2ccc(-c3ccccc3)cc12 [4-(3-methyl-5-phenylbenzo[b]thiophen-2-yl)pyrimidin-2-amine] | < 5.00
5 | Cc1c(-c2ccnc(N)n2)sc2ccc(C(C)N)cc12 (racemic) [(+/-)-4-(5-(1-aminoethyl)-3-methylbenzo[b]thiophen-2-yl)pyrimidin-2-amine] | 5.38
6 | Cc1c(-c2ccnc(N)n2)sc2ccccc12 [4-(3-methylbenzo[b]thiophen-2-yl)pyrimidin-2-amine] | < 5.00
7 | Cc1c(-c2ccnc(N)n2)sc2ccc(Cc3ccccc3)cc12 [4-(5-benzyl-3-methylbenzo[b]thiophen-2-yl)pyrimidin-2-amine] | < 5.00
8 | Cc1c(-c2ccnc(N)n2)sc2ccc(Cc3cccc(C(=O)O)c3)cc12 [3-((2-(2-aminopyrimidin-4-yl)-3-methylbenzo[b]thiophen-5-yl)methyl)benzoic acid] | < 5.00
9 | COc1ccc(Cc2ccc3sc(-c4ccnc(N)n4)c(C)c3c2)cc1 [4-(5-(4-methoxybenzyl)-3-methylbenzo[b]thiophen-2-yl)pyrimidin-2-amine] | < 5.00
10 | COC(=O)c1cccc(Cc2ccc3sc(-c4ccnc(N)n4)c(C)c3c2)c1 [methyl 3-((2-(2-aminopyrimidin-4-yl)-3-methylbenzo[b]thiophen-5-yl)methyl)benzoate] | < 5.00
11 | COc1cccc(Cc2ccc3sc(-c4ccnc(N)n4)c(C)c3c2)c1 [4-(5-(3-methoxybenzyl)-3-methylbenzo[b]thiophen-2-yl)pyrimidin-2-amine] | < 5.00

These reach a higher pEC50. Values come first.

Row | pEC50 | SMILES
12 | 5.59 | COc1ccc(C(N)c2ccc3sc(-c4ccnc(N)n4)c(C)c3c2)cc1 (racemic) [(+/-)--4-(5-(amino(4-methoxyphenyl)methyl)-3-methylbenzo[b]thiophen-2-yl)pyrimidin-2-amine]
13 | 6.22 | CCCC(N)c1ccc2sc(-c3ccnc(N)n3)c(C)c2c1 (racemic) [(+/-)-4-(5-(1-aminobutyl)-3-methylbenzo[b]thiophen-2-yl)pyrimidin-2-amine]
14 | 5.77 | CCC(N)c1ccc2sc(-c3ccnc(N)n3)c(C)c2c1 (racemic) [(+/-)-4-(5-(1-aminopropyl)-3-methylbenzo[b]thiophen-2-yl)pyrimidin-2-amine]
15 | 5.85 | Cc1c(-c2ccnc(N)n2)sc2ccc(C(N)CC(C)C)cc12 (racemic) [(+/-)-4-(5-(1-amino-3-methylbutyl)-3-methylbenzo[b]thiophen-2-yl)pyrimidin-2-amine]
16 | 5.57 | Cc1c(-c2ccnc(N)n2)sc2ccc(C(N)c3cccc(Cl)c3)cc12 (racemic) [(+/-)--4-(5-(amino(3-chlorophenyl)methyl)-3-methylbenzo[b]thiophen-2-yl)pyrimidin-2-amine]
17 | 5.72 | Cc1cccc(C(N)c2ccc3sc(-c4ccnc(N)n4)c(C)c3c2)c1 (racemic) [(+/-)--4-(5-(amino(m-tolyl)methyl)-3-methylbenzo[b]thiophen-2-yl)pyrimidin-2-amine]
18 | 5.44 | COc1cccc(C(N)c2ccc3sc(-c4ccnc(N)n4)c(C)c3c2)c1 (racemic) [(+/-)-4-(5-(amino(3-methoxyphenyl)methyl)-3-methylbenzo[b]thiophen-2-yl)pyrimidin-2-amine]
19 | 5.85 | Cc1c(-c2ccnc(N)n2)sc2ccc(C(N)c3ccccc3)cc12 (racemic) [(+/-)-4-(5-(amino(phenyl)methyl)-3-methylbenzo[b]thiophen-2-yl)pyrimidin-2-amine]
20 | 5.68 | Cc1c(-c2ccnc(N)n2)sc2ccc(C(N)C(C)C)cc12 (racemic) [(+/-)-4-(5-(1-amino-2-methylpropyl)-3-methylbenzo[b]thiophen-2-yl)pyrimidin-2-amine]
21 | 5.54 | Cc1c(-c2ccnc(N)n2)sc2ccc(Cc3cccc(O)c3)cc12 [3-((2-(2-aminopyrimidin-4-yl)-3-methylbenzo[b]thiophen-5-yl)methyl)phenol]

From BindingDB's records for doi:10.1016/j.bmcl.2010.04.020 (Kalypsys, 2010)
